# Where “and” joins values, the source holds several entries; their conditions need not be identical. Equal values may be shown once.
# Legend:
# diabetics [1] = test: Biological Example A: blood sugar in diabetics and one healthy volunteer after oral Example 5 capsules or s.c. Regular Insulin; assay type: in vivo, human
# [2] = Biological Example A: serum insulin after oral Example 5 capsules or s.c. Regular Insulin (radioimmunoassay); assay type: in vivo, human
# Experimental: A total of 17 diabetics (8 Insulin-Dependent and 9 Non-Insulin-Dependent diabetics) and one healthy volunteer are fasted overnight. […] Each capsule contains approximately 10 U of bovine insulin and each subject is given, orally, a dose equivalent to approximately one unit per kg body weight, with about 250 ml of water. Blood sugar levels are measured on blood samples obtained by pricking the finger-tip using a HAEMOGLUKOTEST set 20-800R and a REFLOLUX apparatus (Boehringer Mannheim GmbH, West Germany). In a few cases, serum insulin levels are measured using a radioimmunoassay method. For the serum insulin analyses, the serum samples are decanted into TRASYLOL-containing test tubes and stored at -20° to -35° C. until analysed. (TRASYLOL is a trade mark of Bayer for aprotinin proteinase inhibitor.)
# [3] = Biological Example B: serum insulin after oral Example 1 emulsion or s.c. Regular Insulin; assay type: in vivo, human
# Excerpt: The results are as follows:
# diabetics [4] = test: Biological Example B: blood sugar in diabetics and one healthy volunteer after oral Example 1 liquid microemulsion, Regular Insulin or Diabenase; conditions: for response of case numbers 1 and 8 (in words): 500 mg tablets per os / 20 units s.c.
# Experimental: An appropriate amount of the microemulsion is given in a liquid form per os together with 10 ml of MCT (MCT is a trade mark for a medium chained triglyceride solution by Mead-Johnson & Co. Evansville, Ind., U.S.A.). […] Each ml of the insulin-containing formulation contains approximately 5 units of bovine insulin.
# Twelve diabetics (9 IDDM and 3 NIDDM) and one healthy volunteer participate in the study. […] Each subject is given one unit of insulin per kg body weight in the form described above per os.
# [5] = in vivo; cited from earlier work
# [6] = 15 Units s.c., case 18 IDDM, 0 h (baseline)
# [7] = 15 Units s.c., case 18 IDDM, 1.0 h
# [8] = 15 Units s.c., case 18 IDDM, 2.0 h
# [9] = 15 Units s.c., case 12 IDDM, 0 h (baseline)
# [10] = 15 Units s.c., case 12 IDDM, 1 h
# [11] = 15 Units s.c., case 12 IDDM, 3 h
# [12] = 15 Units s.c., case 12 IDDM, 4 h
# [13] = 20 Units s.c., case 11 IDDM, 0.5 h
# [14] = 20 Units s.c., case 11 IDDM, 3 h
# [15] = 20 Units s.c., case 11 IDDM, 4 h
molecule,measurement,setting,value
"Regular Insulin: Regular Insulin (Green Cross Co. of Seoul, Korea), subcutaneously injected",response to subcutaneously injected insulin (in words),"diabetics [1]; 5 to 20 units s.c., case nos. 2, 5, 6, 10, 14",respond poorly
same,Blood Sugar,"diabetics [1]; 5 units s.c., case 6 NIDDM, 0 h (baseline)",259 mg/dL
same,Blood Sugar,"diabetics [1]; 5 units s.c., case 6 NIDDM, 2 h",376 mg/dL
same,Blood Sugar,"diabetics [1]; 5 units s.c., case 6 NIDDM, 3 h",298 mg/dL
same,Blood Sugar (Table 3),diabetics [1]; [6],171 mg/dL
same,Blood Sugar (Table 3),diabetics [1]; [7],152 mg/dL
same,Blood Sugar (Table 3),diabetics [1]; [8],122 mg/dL
same,Blood Sugar (Table 3),"diabetics [1]; 15 Units s.c., case 18 IDDM, 3.0 h",207 mg/dL
same,Blood Sugar (Table 3),"diabetics [1]; 15 Units s.c., case 18 IDDM, […]",131 mg/dL
same,Blood Sugar,"diabetics [1]; 15 units s.c., case 5 IDDM, 0 h (baseline)",171 mg/dL
same,Blood Sugar,"diabetics [1]; 15 units s.c., case 5 IDDM, 1 h",196 mg/dL
same,Blood Sugar,"diabetics [1]; 15 units s.c., case 5 IDDM, 2 h",161 mg/dL
same,Blood Sugar,"diabetics [1]; 15 units s.c., case 5 IDDM, 3 h",170 mg/dL
same,Blood Sugar (Table 3),"diabetics [1]; 20 Units s.c., case 10 NIDDM, 0 h (baseline)",157 mg/dL
same,Blood Sugar (Table 3),"diabetics [1]; 20 Units s.c., case 10 NIDDM, 0.5 h",102 mg/dL
same,Blood Sugar (Table 3),"diabetics [1]; 20 Units s.c., case 10 NIDDM, 3.0 h",106 mg/dL
same,Blood Sugar (Table 3),"diabetics [1]; 20 Units s.c., case 10 NIDDM, […]",77 mg/dL
same,Blood Sugar,"diabetics [1]; 20 units s.c., poor responders, 0 h (baseline)",216 mg/dL and 330 mg/dL and 312 mg/dL
same,Blood Sugar,"diabetics [1]; 20 units s.c., poor responders, 1 h",196 mg/dL and 162 mg/dL
same,Blood Sugar,"diabetics [1]; 20 units s.c., poor responders, 2 h",186 mg/dL and 180 mg/dL
same,Blood Sugar,"diabetics [1]; 20 units s.c., poor responders, 3 h",180 mg/dL
same,Serum Insulin,[2]; [6],10 micro-U/ml
same,Serum Insulin,[2]; [7],57 micro-U/ml
same,Serum Insulin,[2]; [8],184 micro-U/ml
same,Serum Insulin,"[2]; 15 Units s.c., case 18 IDDM, 4.0 h",64 micro-U/ml
same,Serum Insulin,"[2]; 20 Units s.c., case 10 NIDDM, 1.0 h",19 micro-U/ml
same,Serum Insulin,"[2]; 20 Units s.c., case 10 NIDDM, 2.0 h",11 micro-U/ml
same,Serum Insulin,[3]; [9],30 micro-Units/ml
same,Serum Insulin,[3]; [10],47 micro-Units/ml
same,Serum Insulin,[3]; [11],112 micro-Units/ml
same,Serum Insulin,[3]; [12],115 micro-Units/ml
same,Serum Insulin,[3]; [13],159 micro-Units/ml
same,Serum Insulin,[3]; [14],78 micro-Units/ml
same,Serum Insulin,[3]; [15],45 micro-Units/ml
same,response of case numbers 1 and 8 (in words),diabetics [4],poor responders
same,Blood Sugar (Table 6),diabetics [4]; [9],188 mg/dL
same,Blood Sugar (Table 6),diabetics [4]; [10],181 mg/dL
same,Blood Sugar (Table 6),diabetics [4]; [11],160 mg/dL
same,Blood Sugar (Table 6),diabetics [4]; [12],139 mg/dL
same,Blood Sugar,"diabetics [4]; 15 Units, case 1 NIDDM, 0 h (baseline)",201 mg/dL
same,Blood Sugar,"diabetics [4]; 15 Units, case 1 NIDDM, 1 h",198 mg/dL
same,Blood Sugar,"diabetics [4]; 15 Units, case 1 NIDDM, 4 h",185 mg/dL
same,Blood Sugar (Table 6),"diabetics [4]; 20 Units s.c., case 11 IDDM, 0 h (baseline)",308 mg/dL
same,Blood Sugar (Table 6),diabetics [4]; [13],181 mg/dL
same,Blood Sugar (Table 6),diabetics [4]; [14],87 mg/dL
same,Blood Sugar (Table 6),diabetics [4]; [15],115 mg/dL
same,Blood Sugar,"diabetics [4]; 20 Units, case 8 NIDDM, 3 h",194 mg/dL
same,Blood Sugar,"diabetics [4]; 20 Units, case 8 NIDDM, 4 h",176 mg/dL
same,Blood Sugar,"diabetics [4]; 20 Units, cases 6 and 8, 0 h (baseline)",151 mg/dL and 218 mg/dL
same,Blood Sugar,"diabetics [4]; 20 Units, cases 6 and 8, 2 h",124 mg/dL and 200 mg/dL
Sorbitan monooleate,LD50,[5],> 40 g/kg
Sorbitan trioleate,LD50,[5],> 40 g/kg
Sorbitan tristearate,LD50,[5],> 16 g/kg
CCCNC(=O)NS(=O)(=O)c1ccc(Cl)cc1 [Diabenase],Blood Sugar,"diabetics [4]; 500 mg per os, case 1 NIDDM, 0 h (baseline)",186 mg/dL
same,Blood Sugar,"diabetics [4]; 500 mg per os, case 8 NIDDM, 1 h",222 mg/dL
same,Blood Sugar,"diabetics [4]; 500 mg per os, case 8 NIDDM, 2 h",205 mg/dL
same,Blood Sugar,"diabetics [4]; 500 mg per os, cases 1 and 8 NIDDM, 3 h",164 mg/dL and 174 mg/dL
same,response of case numbers 1 and 8 (in words),diabetics [4],poor responders
Sorbitan monolaurate,LD50,[5],41 g/kg
Sorbitan monopalmitate,LD50,[5],> 16 g/kg
Sorbitan monostearate,LD50,[5],31 g/kg

# Source: US5656289A, “Pharmaceutical formulations that have a biologically active hydrophilic phase and a chylomicra-containing hydrophobic phase” (priority 1988, dated 1997)
